Entries after “also recorded” stand apart in the source; their conditions may differ. Read-outs that look alike come from different tables or passages of the source. Bounds are passed on as bounds.

Experiment [1] has as its target T1, PEDV PL2^pro (Porcine epidemic diarrhea virus, UniProt V5W8W2). As to the kind of experiment: biochemical. Format: biochemical.
The target in experiment [2] is T1, PEDV PL2^pro. Format: biochemical.
In the next experiment the test system is human USP2. The settings on record: cited from earlier work.

In the case of `Sc1ncnc2nc[nH]c12` [6MP, 6-mercaptopurine], the IC50 at PEDV PL2^pro [1] stood at 58.1 ± 5.7 µM.

As for `Nc1nc2nc[nH]c2c(=S)[nH]1` [6TG, 6-thioguanine], on PEDV PL2^pro [1], the “IC50 of 6TG fold lower than that of 6MP” value stood at 4.2 fold. The pattern of inhibition entry is reported as “noncompetitive inhibitor; also recorded: noncompetitive pattern of inhibition” on PEDV PL2^pro [2] and “noncompetitive inhibitory effect” in the experiment with human USP2.

`CCN(CC)C(=S)SSC(=S)N(CC)CC` [Disulfiram] showed a 50% inhibitory concentration (IC50) on PEDV PL2^pro [1] greater than 100 µM.

As to `O=C(O)CN(CCN(CC(=O)O)CC(=O)O)CC(=O)O` [EDTA], at PEDV PL2^pro [1], the “inhibition of DUB activity by EDTA (in words)” value was “dose-dependent pattern”.

Regarding `Cc1ccc(N)cc1C(=O)N[C@H](C)c1cccc2ccccc12` [GRL0617], the IC50 at PEDV PL2^pro [1] (read-out: IC50 (DUB activity), pH 6.5) was greater than 100 µM.

Regarding `O=c1[nH]cnc2nc[nH]c12` [Hypoxanthine], at PEDV PL2^pro [1], the half-inhibitory concentration (IC50) was greater than 200 µM and the “inhibitory activity (in words)” value is reported as “devoid of inhibitory activity”.

With `COc1c(C)c2c(c(O)c1C/C=C(\C)CCC(=O)O)C(=O)OC2` [Mycophenolic acid], the IC50 against PEDV PL2^pro [1] was greater than 200 µM.

For zinc ions, the “inhibition of DUB activity by external zinc ions (in words)” value against PEDV PL2^pro [1] is “can be inhibited”.

The values are drawn from paper PMC7113753 (Antiviral Research, 2018).
